Results reported in patent publication US9388180B2, “Inhibitor compounds of phosphodiesterase type 10A” (priority 2012, dated 2016).

What was measured:
[1] = Microsomal half-life / microsomal clearance, human liver microsomes; assay type: in vitro ADME; conditions: 0.5 μM test substance, 0.25 mg protein/ml, pH 7.4, 37° C.
Description: (§1) The metabolic stability of the compounds of the invention was determined in the following assay. The test substances were incubated in a concentration of 0.5 μM as follows: 0.5 μM test substance are preincubated together with liver microsomes from different species (from rat, human or other species) (0.25 mg of microsomal protein/ml) in 0.05 M potassium phosphate buffer of pH 7.4 in microtiter plates at 37° C. for 5 min. The reaction is started by adding NADPH (1 mg/mL). After 0, 5, 10, 15, 20 and 30 min, 50 μl aliquots are removed, and the reaction is immediately stopped and cooled with the same volume of acetonitrile. The samples are frozen until analyzed. The remaining concentration of undegraded test substance is determined by MSMS. The half-life (T½) is determined from the gradient of the signal of test substance/unit time plot, it being possible to calculate the half-life of the test substance, assuming first order kinetics, from the decrease in the concentration of the compound with time. The microsomal clearance (mCl) is calculated from mCl=ln 2/T½/(content of microsomal protein in mg/ml)×1000 [ml/min/mg] (modified from references: Di, The Society for Bimolecular Screening, 2003, 453-462; Obach, D M D, 1999 vol 27. N 11, 1350-1359).

[2] = Microsomal half-life / microsomal clearance, rat liver microsomes; assay type: in vitro ADME; conditions: 0.5 μM test substance, 0.25 mg protein/ml, pH 7.4, 37° C.
Description: as §1

rats [3] = conditions: cited from earlier work
rats [4] = conditions: cited from earlier work; remark: listed apart in the source
rats [5] = conditions: cited from earlier work; remark: listed apart in the source

Row | Compound | Human mCl [1] | Rat mCl [2] | hyperactivity induced by PCP (rats [3]) | reduction of amphetamine-induced hyperactivity (rats [4]) | effect on the cataleptic effect of haloperidol (rats [5]; with D2 receptor antagonist haloperidol) | catalepsy on its own (rats [5]; without haloperidol)
1 | CCCc1nc(C)c2c(C)nc3sc(C)nc3n12 [Example 3, 2,5,6-Trimethyl-8-propyl-3-thia-1,4,7,8a-tetraaza-as-indacene] | + (+: 100-220 μl min^−1 mg^−1) | ∘ (∘: >220 μl min^−1 mg^−1) |  |  |  | 
2 | COc1ccc(Cc2nccc3cc(OC)c(OC)cc23)cc1OC [Papaverine, papaverine] |  |  | reduced hyperactivity | insignificant | potentiated the cataleptic effect | did not cause catalepsy
3 | CCCc1nc(C)c2c(C)nc3sc(OC)nc3n12 [Example 5, 2-Methoxy-5,6-dimethyl-8-propyl-3-thia-1,4,7,8a-tetraaza-as-indacene] | ∘ (∘: >220 μl min^−1 mg^−1) | ∘ (∘: >220 μl min^−1 mg^−1) |  |  |  | 
4 | Cc1nc(-c2cccc(C(N)=O)c2)n2c1c(C)nc1scnc12 [Example 8, 3-(5,6-Dimethyl-3-thia-1,4,7,8a-tetraaza-as-indacen-8-yl)-benzamide] | ++ (++: <100 μl min^−1 mg^−1) | ++ (++: <100 μl min^−1 mg^−1) |  |  |  | 
5 | CCCc1nc(C)c2c(C)nc3scnc3n12 [Example 1, 5,6-Dimethyl-8-propyl-3-thia-1,4,7,8a-tetraaza-as-indacene] | ++ (++: <100 μl min^−1 mg^−1) | + (+: 100-220 μl min^−1 mg^−1) |  |  |  | 

The next lines start with results.

Row | Human mCl [1] | Rat mCl [2] | Compound | hyperactivity induced by PCP (rats [3]) | reduction of amphetamine-induced hyperactivity (rats [4]) | effect on the cataleptic effect of haloperidol (rats [5]; with D2 receptor antagonist haloperidol) | catalepsy on its own (rats [5]; without haloperidol)
6 | ++ (++: <100 μl min^−1 mg^−1) | ++ (++: <100 μl min^−1 mg^−1) | Cc1ncccc1-c1nc(C)c2c(C)nc3scnc3n12 [Example 9, 5,6-Dimethyl-8-(2-methyl-pyridin-3-yl)-3-thia-1,4,7,8a-tetraaza-as-indacene] |  |  |  | 
7 | + (+: 100-220 μl min^−1 mg^−1) | + (+: 100-220 μl min^−1 mg^−1) | Cc1ccc(-c2nc(C)c3c(C)nc4scnc4n23)cn1 [Example 11, 5,6-Dimethyl-8-(6-methyl-pyridin-3-yl)-3-thia-1,4,7,8a-tetraaza-as-indacene] |  |  |  | 
